From patent publication US20240209028A1, “CNP COMPOUNDS” (priority 2022, published 2024)
In brackets after ≈: the same amount, converted by molar mass. Where two headings read alike, the source gives them in different places. Starred links: 1 amine or outer side, 2 acyl side, 3 side chain; linkers in the order of their positions; H or OH if unused. Positions of bridges follow the written chain, without caps; N, C: chain ends. Residues, ends and D or L forms follow the SMILES beside them. *: point of attachment. C18 diacid = O=C(O)CCCCCCCCCCCCCCCCC(=O)*; γGlu = O=C(O)[C@H](CCC(=O)[*:2])N[*:1]; X1 = O=C(CCCCCCCCCCCCCCCCc1nnn[nH]1)*; AEEA = NCCOCCOCC(=O)O

How the values were obtained:
[1] = Solubility of CNP compounds at pH 4.0 and pH 6.5; type: physicochemical
How it was run: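 Supernatant peptide concentration was quantified by CAD after overnight room-temperature equilibration of incompletely dissolved samples. Nominal loading was ≥4000-5000 nmol/mL. Media were pH 4.0 sodium acetate 5 mM/glycerol 250 mM, or pH 6.5 sodium phosphate 8 mM/glycerol 23 mg/mL reached by stepwise NaOH addition.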

[2] = PK of CNP compounds after i.v. and s.c. administration to rats; settings: male, Sprague Dawley, in vivo, rat; for clearance: read-out: Cl (L/hr/kg), i.v. administration (converted)
Procedure: In order to assess the i.v. and s.c. PK/PD profile of CNP compounds of the present invention, formulations of CNP compounds were administered to rats, blood samples taken and exposure and cGMP response measured.
Quantitative plasma analysis of CNP-compounds: Plasma concentrations of CNP compounds were assayed by plasma protein precipitation and analysed by turboflow liquid chromatography mass spectrometry (TF-LC-MS). Calibrators were prepared by spiking either blank rat or minipig plasma with the relevant CNP compound in the range from 0.5 to 2000 nM. Calibrators, plasma blanks or study samples were prepared for TF-LC-MS by protein precipitation by adding three or four volumes of either ethanol or methanol containing 20 nM of internal standard to one volume of sample. For some compounds, formic acid was added to the precipitation reagent (the final concentration was 1% v/v). After the addition of the precipitation reagent, the mixture was centrifuged at 6200 rpm at 4° C. for 30 minutes. After centrifugation, one volume of supernatant was mixed with two volumes of water (with 1% v/v formic acid). The mixture was analysed by TF-LC-MS using a Cyclone turboflow column (0.5×50 mm, ThermoFisher Scientific) and either a XBridge Protein BEH C4 3.5 μm 300 Åor a XBridge Protein BEH C18 3.5 μm 130 Åanalytical column (both were 50×2.1 mm and obtained from Waters). […] The mass spectrometer was operated in positive ionisation mode. A TSQ Altis mass spectrometer (ThermoFisher Scientific) was used as detector in selected reaction monitoring mode (specific transition were optimised for each CNP compound). Linear calibration curves (weighed 1/×2) were used for calculating the concentration in the plasma samples. Quality control samples were included. The deviation between nominal and calculated concentration in the calibrators and quality control samples were below 15%.
Animals and dosing: Groups of 4-6 rats (male, Sprague Dawley, 350 g at arrival, Janvier, France) per compound and route of administration were dosed with a CNP compound formulated either in A) 8 mM sodium phosphate, 250 mM glycerol, 0.007% polysorbate 20, pH 7.4 or B) 5 mM sodium acetate, 250 mM glycerol, 0.007% polysorbate 20, pH 4.0 depending on the respective compound. S.c. dose was 300 nmol/kg, at a concentration of […] resulting in a dosing volume of 0.3 mL/kg, whereas i.v. dose was 100 nmol/kg, at a concentration of […] resulting in a dosing volume of 1 mL/kg.
Sampling: Sublingual blood samples of 250 uL were collected from unanaesthetised rats in EDTA-coated vials (Microvette 600K3E ref #15.1673.100 Sarstedt) at baseline (-1 h before dosing) as well as 5 min (only i.v. dosed groups), 2 h, 6 h, 24 h, 48 h and 72 h (only for exposure analysis) post-dosing. The blood samples were quickly stored on ice and centrifuged (4° C., 8000 RPM, 5 min) within 10 min of collection. Plasma samples of 50 μL were transferred to each micronic tube for either exposure or cGMP analysis, kept on dry ice and stored in a freezer (−20° C.). Rats had access to food (Altromin) and tap water ad libitum.
Analysis: PK parameters were calculated by non-compartment analysis (NCA) using software Phoenix WinNonlin (ver. 8.1 or later, Certara) for each animal. Clearance (Cl) was calculated as: Dose/AUCinf (linear up, log down). […] Bioavailability was calculated as dose normalized AUC's: (AUC(sc)/Dose(sc))/(AUC(iv)/Dose(iv)). Values in the table are means from individual animals (n=4-6 individual animals). The subsequent plots for cGMP plasma concentration versus time are (Y-axis) mean cGMP concentration (n=4-6 individual animals) after IV dosing and (X-axis) nominal plasma sampling time.
Plasma cGMP are reported as the mean.

[3] = 8 mM sodium phosphate, 23 mg/mL glycerol, pH 6.5, room temperature, read-out: Solubility at pH 6.5
[4] = iv, i.v., about 100 nmol/kg, read-out: T½ (hr), i.v. administration (converted)
[5] = 5 mM sodium acetate, 250 mM glycerol, pH 4.0, room temperature, read-out: Solubility at pH 4.0

| SMILES | solubility [1, 3] | clearance ([2]; iv, i.v., about 100 nmol/kg) | half-life [2, 4] | solubility [1, 5] | bioavailability ([2]; sc, s.c. bioavailability, about 300 nmol/kg, read-out: F (%), s.c. administration) | half-life ([2]; sc, s.c., about 300 nmol/kg, read-out: T½ (hr), s.c. administration (converted)) |
| --- | --- | --- | --- | --- | --- | --- |
| CC[C@H](C)[C@@H]1NC(=O)[C@H](CCCNC(=N)N)NC(=O)[C@H](CC(=O)O)NC(=O)[C@H](CC(C)C)NC(=O)[C@@H]2CCCN2C(=O)[C@H](CC(C)C)NC(=O)CNC(=O)[C@H](Cc2ccccc2)NC(=O)[C@@H](NC(=O)CNC(=O)[C@H](CCC(N)=O)NC(=O)[C@H](CO)NC(=O)CNC(=O)CNC(=O)[C@H](CCCCN)NC(=O)[C@H](CCCCN)NC(=O)[C@H](CCC(N)=O)NC(=O)[C@H](C)NC(=O)CNC(=O)[C@H](Cc2c[nH]cn2)NC(=O)[C@H](Cc2ccc(O)cc2)NC(=O)COCCOCCNC(=O)COCCOCCNC(=O)COCCOCCNC(=O)COCCOCCNC(=O)CC[C@H](NC(=O)CC[C@H](NC(=O)CCCCCCCCCCCCCCCCC(=O)O)C(=O)O)C(=O)O)CSSC[C@@H](C(=O)O)NC(=O)CNC(=O)[C@H](CC(C)C)NC(=O)CNC(=O)[C@H](CO)NC(=O)[C@H](CC(C)C)NC(=O)[C@H](CO)NC(=O)CNC1=O [compound 1434] ({C18 diacid-γGlu-γGlu-AEEA-AEEA-AEEA-AEEA}-YHGAQKKGGSQGCFGLPLDRIGSLSGLGC-OH; disulfide 13-29) | 8.51 mM (≈ 34.4 mg/mL) | 0.00764 L/h/kg | 8.34 h | – | – | – |
| CC[C@H](C)[C@@H]1NC(=O)[C@H](CCCNC(=N)N)NC(=O)[C@H](CC(=O)O)NC(=O)[C@H](CC(C)C)NC(=O)[C@@H]2CCCN2C(=O)[C@H](CC(C)C)NC(=O)CNC(=O)[C@H](Cc2ccccc2)NC(=O)[C@@H](NC(=O)CNC(=O)[C@H](CCC(N)=O)NC(=O)[C@H](CO)NC(=O)[C@H](CC(C)C)NC(=O)CNC(=O)[C@H](CO)NC(=O)[C@H](CCCCN)NC(=O)[C@H](CCC(N)=O)NC(=O)[C@H](C)NC(=O)CNC(=O)[C@H](Cc2c[nH]cn2)NC(=O)[C@H](Cc2ccc(O)cc2)NC(=O)[C@H](CCCCN)NC(=O)[C@H](CCCNC(=N)N)NC(=O)[C@H](C)NC(=O)COCCOCCNC(=O)COCCOCCNC(=O)CC[C@H](NC(=O)CC[C@H](NC(=O)CCCCCCCCCCCCCCCCc2nnn[nH]2)C(=O)O)C(=O)O)CSSC[C@@H](C(=O)O)NC(=O)CNC(=O)[C@H](CC(C)C)NC(=O)CNC(=O)[C@H](CO)NC(=O)[C@H](CC(C)C)NC(=O)[C@H](CO)NC(=O)CNC1=O [compound 1426] ({X1-γGlu-γGlu-AEEA-AEEA}-ARKYHGAQKSGLSQGCFGLPLDRIGSLSGLGC-OH; disulfide 16-32) | – | 0.00348 L/h/kg | 9.96 h | 11.2 mM (≈ 46.6 mg/mL) | – | – |
| CC[C@H](C)[C@@H]1NC(=O)[C@H](CCCNC(=N)N)NC(=O)[C@H](CC(=O)O)NC(=O)[C@H](CC(C)C)NC(=O)[C@@H]2CCCN2C(=O)[C@H](CC(C)C)NC(=O)CNC(=O)[C@H](Cc2ccccc2)NC(=O)[C@@H](NC(=O)CNC(=O)[C@H](CO)NC(=O)[C@H](CO)NC(=O)[C@@H](NC(=O)CNC(=O)[C@@H](NC(=O)[C@H](Cc2c[nH]cn2)NC(=O)[C@H](CCC(N)=O)NC(=O)[C@H](C)NC(=O)CNC(=O)[C@H](Cc2c[nH]cn2)NC(=O)[C@H](Cc2ccc(O)cc2)NC(=O)[C@H](CCCCN)NC(=O)[C@H](CCCNC(=N)N)NC(=O)[C@H](C)NC(=O)COCCOCCNC(=O)COCCOCCNC(=O)CC[C@H](NC(=O)CCCCCCCCCCCCCCCCC(=O)O)C(=O)O)[C@@H](C)O)C(C)C)CSSC[C@@H](C(=O)O)NC(=O)CNC(=O)[C@H](CC(C)C)NC(=O)CNC(=O)[C@H](CO)NC(=O)[C@H](CC(C)C)NC(=O)[C@H](CO)NC(=O)CNC1=O [compound 1351] ({C18 diacid-γGlu-AEEA-AEEA}-ARKYHGAQHTGVSSGCFGLPLDRIGSLSGLGC-OH; disulfide 16-32) | – | 0.0093 L/h/kg | 6.07 h | 6.17 mM (≈ 24.4 mg/mL) | – | – |
| CC[C@H](C)[C@@H]1NC(=O)[C@H](CCCNC(=N)N)NC(=O)[C@H](CC(=O)O)NC(=O)[C@H](CC(C)C)NC(=O)[C@@H]2CCCN2C(=O)[C@H](CC(C)C)NC(=O)CNC(=O)[C@H](Cc2ccccc2)NC(=O)[C@@H](NC(=O)CNC(=O)[C@H](CO)NC(=O)[C@H](CO)NC(=O)[C@H](CC(C)C)NC(=O)CNC(=O)[C@H](CCCCN)NC(=O)[C@H](CCCCN)NC(=O)[C@H](CCC(N)=O)NC(=O)[C@H](C)NC(=O)CNC(=O)[C@H](CCC(=O)O)NC(=O)[C@H](Cc2ccc(O)cc2)NC(=O)CNC(=O)CNC(=O)CNC(=O)COCCOCCNC(=O)COCCOCCNC(=O)CC[C@H](NC(=O)CCCCCCCCCCCCCCCCC(=O)O)C(=O)O)CSSC[C@@H](C(=O)O)NC(=O)CNC(=O)[C@H](CC(C)C)NC(=O)CNC(=O)[C@H](CO)NC(=O)[C@H](CC(C)C)NC(=O)[C@H](CO)NC(=O)CNC1=O [compound 1378] ({C18 diacid-γGlu-AEEA-AEEA}-GGGYEGAQKKGLSSGCFGLPLDRIGSLSGLGC-OH; disulfide 16-32) | 8.92 mM (≈ 33.9 mg/mL) | 0.00926 L/h/kg | 5.29 h | – | – | – |
| CC[C@H](C)[C@@H]1NC(=O)[C@H](CCCNC(=N)N)NC(=O)[C@H](CC(=O)O)NC(=O)[C@H](CC(C)C)NC(=O)[C@@H]2CCCN2C(=O)[C@H](CC(C)C)NC(=O)CNC(=O)[C@H](Cc2ccccc2)NC(=O)[C@@H](NC(=O)CNC(=O)[C@H](CCC(N)=O)NC(=O)[C@H](CO)NC(=O)CNC(=O)CNC(=O)[C@H](CCCCN)NC(=O)[C@H](CCCCN)NC(=O)[C@H](CCC(N)=O)NC(=O)[C@H](C)NC(=O)CNC(=O)[C@H](CCCCN)NC(=O)[C@H](Cc2ccc(O)cc2)NC(=O)COCCOCCNC(=O)COCCOCCNC(=O)COCCOCCNC(=O)COCCOCCNC(=O)CC[C@H](NC(=O)CC[C@H](NC(=O)CCCCCCCCCCCCCCCCC(=O)O)C(=O)O)C(=O)O)CSSC[C@@H](C(=O)O)NC(=O)CNC(=O)[C@H](CC(C)C)NC(=O)CNC(=O)[C@H](CO)NC(=O)[C@H](CC(C)C)NC(=O)[C@H](CO)NC(=O)CNC1=O [compound 9435] ({C18 diacid-γGlu-γGlu-AEEA-AEEA-AEEA-AEEA}-YKGAQKKGGSQGCFGLPLDRIGSLSGLGC-OH; disulfide 13-29; C-terminus assumed) | 2.36 mM (≈ 9.5 mg/mL) | 0.00458 L/h/kg | 10.4 h | 7.42 mM (≈ 29.9 mg/mL) | – | – |
| CC[C@H](C)[C@@H]1NC(=O)[C@H](CCCNC(=N)N)NC(=O)[C@H](CC(=O)O)NC(=O)[C@H](CC(C)C)NC(=O)[C@@H]2CCCN2C(=O)[C@H](CC(C)C)NC(=O)CNC(=O)[C@H](Cc2ccccc2)NC(=O)[C@@H](NC(=O)CNC(=O)[C@H](CCC(N)=O)NC(=O)[C@H](CO)NC(=O)[C@H](CO)NC(=O)CNC(=O)[C@H](CCCCN)NC(=O)[C@H](CCCCN)NC(=O)[C@H](CCC(N)=O)NC(=O)[C@H](C)NC(=O)CNC(=O)[C@@H]2CCCN2C(=O)[C@H](C)NC(=O)[C@H](CCC(N)=O)NC(=O)CNC(=O)COCCOCCNC(=O)COCCOCCNC(=O)CC[C@H](NC(=O)CCCCCCCCCCCCCCCCC(=O)O)C(=O)O)CSSC[C@@H](C(=O)O)NC(=O)CNC(=O)[C@H](CC(C)C)NC(=O)CNC(=O)[C@H](CO)NC(=O)[C@H](CC(C)C)NC(=O)[C@H](CO)NC(=O)CNC1=O [compound 9384] ({C18 diacid-γGlu-AEEA-AEEA}-GQAPGAQKKGSSQGCFGLPLDRIGSLSGLGC-OH; disulfide 15-31; C-terminus assumed) | 7.56 mM (≈ 28 mg/mL) | 0.00493 L/h/kg | 9.15 h | – | 49.7% | 9.47 h |
